# Test system: 4T1-luc2 murine tumor cells
# Assay: 4T1-luc2 tumors in mammary fat pad of immunocompetent BALB/c mice
# Type: in vivo
# Details: 5 mg/kg 5/2 for 15 days, bioluminescence
# Experimental: Female BALB/c immunocompetent mice were implanted with 1×10^5 4T1-luc2 murine tumor cells into the mammary fat pad. Upon growth of the tumors between 60-90 mm^3 the animals were selected for imaging. Mice were randomized and enrolled for treatment based on imaging flux values. Mice were treated once daily with 5 mg/kg of either OT-1096 or vehicle control using a 5/2 (five days on, two days off) dosing protocol. Upon days 1, 8, and 15 whole body imaging was performed on the mice to follow tumor cell luminescence. Analysis consists of primary tumor luminescence in mice. Each mouse was normalized to its own baseline luminescence from day 1. […] Data is represented as mean±SEM. Statistical significance (p<0.05) was determined using a Mann-Whitney test. The relative luminescence flux for mice treated with OT-1096 was significant compared to vehicle at day 15.
# Athymic nude mice were inoculated orthotopically with 5×10^6 MDA-MB-231 breast cancer cells into the mammary fat pad, and randomized for treatment when tumors reached an average volume of 80-120 mm^3 (N=12 in each group). […] Xenograft tumor volume was assessed using caliper measurements for 25 days. […] Xenograft tumor volume was assessed using caliper measurements for 25 days. […] Statistical significance (p<0.05) was determined using a Two-way repeated measures ANOVA with Sidak's multiple comparison test. […]
structure (smiles),measurement,value
"CCCCCCCCS(=O)(=O)c1nc(OC)ccc1[N+](=O)[O-] [OT-1096, 6-methoxy-3-nitro-2-(octylsulfonyl)pyridine]",% TGI,54%
